Data from patent US11559538B2, “Substituted 1,2-oxaborolan-2-ols as PDE4 inhibitors” (Pfizer Inc., priority 2018, dated 2023).
Read-outs that look alike come from different tables or passages of the source.

Assays:
[1] = test system: IFNγ; assay: Cytokine assay: IFNγ release from PHA-L stimulated human PBMCs; assay type: cell-based
Summary of the method: (§1)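 HTRF read-out of cytokine in culture supernatants after 48 h. PBMCs (human, ~250,000/well) received compound (4-fold dilutions, 0.25% DMSO) 10 min before PHA-L at 3.5 μg/mL final. IC50 from four-parameter logistic curve.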

[2] = molecular target: PDE4B (aa 152-484, Uniprot ID Q07343) (Homo sapiens (Human), UniProt Q07343); assay: PDE4 SPA assay (scintillation proximity assay); assay type: biochemical; details: read-out: PDE4B2 IC50
Sequence of PDE4B (aa 152-484, Uniprot ID Q07343) (Q07343 324-656): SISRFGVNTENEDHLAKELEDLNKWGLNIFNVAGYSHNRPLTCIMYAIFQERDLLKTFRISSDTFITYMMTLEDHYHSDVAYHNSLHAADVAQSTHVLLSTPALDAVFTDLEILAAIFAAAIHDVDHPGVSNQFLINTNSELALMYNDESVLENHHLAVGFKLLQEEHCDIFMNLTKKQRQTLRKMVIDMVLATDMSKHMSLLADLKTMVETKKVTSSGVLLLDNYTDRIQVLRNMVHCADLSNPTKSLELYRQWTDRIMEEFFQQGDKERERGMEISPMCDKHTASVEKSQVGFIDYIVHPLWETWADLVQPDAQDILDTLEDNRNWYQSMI
Summary of the method: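 Scintillation proximity read-out after a 30 min room-temperature reaction of ~81.6 pM PDE4B catalytic fragment (aa 152-484) with 1 μM tritiated/unlabeled cAMP, pH 7.5 Tris buffer with MgCl2 and Brij 35. Compound given ~10 min beforehand, 4-fold dilutions, ~2% DMSO; IC50 from four-parameter logistic curve.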

[3] = test system: IL-13; assay: Cytokine assay: IL-13 release from PHA-L stimulated human PBMCs; assay type: cell-based; details: read-out: IL13 IC50
Summary of the method: as §1

[4] = test system: IL-4; assay: Cytokine assay: IL-4 release from PHA-L stimulated human PBMCs; assay type: cell-based; details: read-out: IL4 IC50
Summary of the method: as §1

Row | Compound | IC50 ([1]; Homo sapiens, PBMC) [nM] | IC50 [2] [nM] | IC50 ([3]; Homo sapiens, PBMC) [nM] | IC50 ([4]; Homo sapiens, PBMC) [nM] | IC50 [1] [nM] | IC50 [3] [nM] | IC50 [4] [nM]
1 | CCCOc1cc(-c2nc(CC(=O)O)cc(C3COB(O)C3)n2)ccc1OC (stereo not drawn) [Example 134, 2-(6-(2-hydroxy-1,2-oxaborolan-4-yl)-2-(4-methoxy-3-propoxyphenyl)pyrimidin-4-yl)acetic acid] | 3.04 | 7.46 | 1110 | 1.79 | – | – | –
2 | CCOc1cc(-c2cncc(C3COB(O)C3)n2)ccc1OC (stereo not drawn) [Example 56, 4-(6-(3-ethoxy-4-methoxyphenyl)pyrazin-2-yl)-1,2-oxaborolan-2-ol] | 3.62 | 2.81 | 446 | 68 | – | – | –
3 | CCOc1cc(-c2cncc(C3COB(O)C3)c2)cc(C#N)c1OC (single isomer, unassigned) [Example 119, 3-ethoxy-5-(5-(2-hydroxy-1,2-oxaborolan-4-yl)pyridin-3-yl)-2-methoxybenzonitrile] | 7.34 | 0.72 | 1190 | 5.74 | – | – | –
4 | CCCOc1cc(-c2nc(C3COB(O)C3)cc(C(F)(F)F)n2)ccc1OC (stereo not drawn) [Example 124, 4-(2-(4-methoxy-3-propoxyphenyl)-6-(trifluoromethyl)pyrimidin-4-yl)-1,2-oxaborolan-2-ol] | – | 2.2 | – | – | 10.1 | 1660 | 9.48
5 | CCCOc1c(OC)ccc(-c2cccc(C3COB(O)C3)n2)c1C#N (stereo not drawn) [Example 86, 6-(6-(2-hydroxy-1,2-oxaborolan-4-yl)pyridin-2-yl)-3-methoxy-2-propoxybenzonitrile] | 5 | 7.26 | 1330 | 105 | – | – | –
6 | CCOc1cc(-c2cncc(C3COB(O)C3)c2)c(Cl)cc1OC (stereo not drawn) [Example 47, 4-(5-(2-chloro-5-ethoxy-4-methoxyphenyl)pyridin-3-yl)-1,2-oxaborolan-2-ol] | 1.54 | 3.01 | 143 | 4.11 | – | – | –
7 | CCCOc1cc(-c2cncc(C3COB(O)C3)c2)ccc1SC (stereo not drawn) [Example 112, 4-(5-(4-(methylthio)-3-propoxyphenyl)pyridin-3-yl)-1,2-oxaborolan-2-ol] | – | 1.41 | 588 | – | 8.1 | – | 79.9
8 | CCCOc1cc(-c2cncc(C3COB(O)C3)c2)cnc1OC (stereo not drawn) [Example 51, 4-(6′-methoxy-5′-propoxy-[3,3′-bipyridin]-5-yl)-1,2-oxaborolan-2-ol] | 1.64 | 1.27 | 337 | 3.73 | – | – | –
9 | CCOc1cc(-c2cccc(C3COB(O)C3)c2)ccc1OC (stereo not drawn) [Example 77, 4-(3′-ethoxy-4′-methoxy-[1,1′-biphenyl]-3-yl)-1,2-oxaborolan-2-ol] | 2.61 | 2.4 | 415 | 40.8 | – | – | –
10 | CCCOc1cc(-c2cccc(C3(C)COB(O)C3)n2)ccc1OC (stereo not drawn) [Example 29, 4-(6-(4-methoxy-3-propoxyphenyl)pyridin-2-yl)-4-methyl-1,2-oxaborolan-2-ol] | 4.82 | 10.5 | 3470 | 9.51 | – | – | –
11 | COc1ccc(-c2cncc(C3COB(O)C3)c2)cc1OC1CCSCC1 (single isomer, unassigned; enantiomer 1) [Example 170, 4-(5-(4-methoxy-3-((tetrahydro-2H-thiopyran-4-yl)oxy)phenyl)pyridin-3-yl)-1,2-oxaborolan-2-ol, enantiomer 1] | 2.83 | 3.78 | 1070 | 48.5 | – | – | –
12 | COc1ccc(-c2cccc(C3COB(O)C3)c2)cc1OCCCF (stereo not drawn) [Example 40, 4-(3′-(3-fluoropropoxy)-4′-methoxy-[1,1′-biphenyl]-3-yl)-1,2-oxaborolan-2-ol] | 1.28 | 0.37 | 175 | 29.2 | – | – | –
13 | CCCOc1cc(-c2cc(C)cc(C3COB(O)C3)n2)ccc1OC (stereo not drawn) [Example 158, 4-(6-(4-methoxy-3-propoxyphenyl)-4-methylpyridin-2-yl)-1,2-oxaborolan-2-ol] | 10.2 | 12 | 929 | 59.1 | – | – | –
14 | CCCOc1cc(-c2cncc(C3COB(O)C3)c2C)ccc1OC (single isomer, unassigned) [Example 85, 4-(5-(4-methoxy-3-propoxyphenyl)-4-methylpyridin-3-yl)-1,2-oxaborolan-2-ol] | 0.56 | 0.29 | 541 | 0.9 | – | – | –
15 | CCCOc1nc(-c2cncc(C3COB(O)C3)c2)ccc1OC (single isomer, unassigned) [Example 62, 4-(5-methoxy-6-propoxy-[2,3′-bipyridin]-5′-yl)-1,2-oxaborolan-2-ol] | – | 0.28 | – | – | 1.44 | 2570 | 2.66
16 | COc1ccc(-c2cncc(C3COB(O)C3)c2)cc1OCCO (single isomer, unassigned; enantiomer 2) [Example 228, (+) 4-(5-(3-(2-hydroxyethoxy)-4-methoxyphenyl)pyridin-3-yl)-1,2-oxaborolan-2-ol, enantiomer 2] | – | 6.32 | – | – | 14.2 | 2570 | 7.78
17 | CCCOc1c(OC)ccc(-c2cccc(C3COB(O)C3)c2)c1C#N (stereo not drawn) [Example 42, 3′-(2-hydroxy-1,2-oxaborolan-4-yl)-4-methoxy-3-propoxy-[1,1′-biphenyl]-2-carbonitrile] | 1.55 | 0.35 | 205 | 90.4 | – | – | –
18 | CCCOc1nc(-c2cccc(C3=CB(O)OC3)c2)ccc1OC [Example 155, 4-(3-(5-methoxy-6-propoxypyridin-2-yl)phenyl)-1,2-oxaborol-2(5H)-ol] | 5.64 | 1.81 | 2600 | 293 | – | – | –
19 | COc1ccc(-c2cc(C3COB(O)C3)ccn2)cc1OC1CCCC1 (single isomer, unassigned; enantiomer 2) [Example 211, 4-(2-(3-(cyclopentyloxy)-4-methoxyphenyl)pyridin-4-yl)-1,2-oxaborolan-2-ol, enantiomer 2] | 1.83 | 2.95 | 1840 | 27.8 | – | – | –
20 | CCCOc1cc(-c2cncc(C3(CO)COB(O)C3)c2)ccc1OC (stereo not drawn) [Example 31, 4-(hydroxymethyl)-4-(5-(4-methoxy-3-propoxyphenyl)pyridin-3-yl)-1,2-oxaborolan-2-ol] | 2.96 | 4.2 | 5730 | 3.92 | – | – | –
21 | COc1ccc(-c2cncc(C3COB(O)C3)c2)cc1OCCCO (single isomer, unassigned) [Example 9, 4-(5-(3-(3-hydroxypropoxy)-4-methoxyphenyl)pyridin-3-yl)-1,2-oxaborolan-2-ol] | 1.87 | 1.26 | 265 | 3.63 | – | – | –
22 | CCCOc1cc(-c2cccc(C3COB(O)C3)c2)ccc1OC (stereo not drawn) [Example 88, 4-(4′-methoxy-3′-propoxy-[1,1′-biphenyl]-3-yl)-1,2-oxaborolan-2-ol] | 6.14 | 2.64 | 609 | 63.7 | – | – | –
23 | COc1ccc(-c2cncc(C3COB(O)C3)n2)cc1OC1CCCC1 (single isomer, unassigned) [Example 126, 4-(6-(3-(cyclopentyloxy)-4-methoxyphenyl)pyrazin-2-yl)-1,2-oxaborolan-2-ol] | 0.79 | 0.85 | 680 | 7.21 | – | – | –
24 | COc1cc(-c2cccc(C3COB(O)C3)c2)cnc1OC (stereo not drawn) [Example 161, 4-(3-(5,6-dimethoxypyridin-3-yl)phenyl)-1,2-oxaborolan-2-ol] | 38.6 | 11.3 | 960 | 419 | – | – | –
25 | CCOc1cc(-c2nc(C3COB(O)C3)cs2)ccc1OC (single isomer, unassigned; enantiomer 1) [Example 194, (−) 4-(2-(3-ethoxy-4-methoxyphenyl)thiazol-4-yl)-1,2-oxaborolan-2-ol, enantiomer 1] | 14.7 | 3.63 | 1540 | 2.85 | – | – | –
26 | CCOc1c(OC)ccc(-c2cncc(C3COB(O)C3)c2)c1C(F)(F)F (single isomer, unassigned) [Example 95, 4-(5-(3-ethoxy-4-methoxy-2-(trifluoromethyl)phenyl)pyridin-3-yl)-1,2-oxaborolan-2-ol] | 2.87 | 4.87 | 461 | 7.36 | – | – | –
27 | CCOc1cc(-c2nc(C3COB(O)C3)cs2)c(F)cc1OC (stereo not drawn) [Example 91, 4-(2-(5-ethoxy-2-fluoro-4-methoxyphenyl)thiazol-4-yl)-1,2-oxaborolan-2-ol] | 3.92 | 3 | 460 | 5.9 | – | – | –
28 | CCOc1cc(-c2cc(C(F)(F)F)cc(C3COB(O)C3)n2)ccc1OC (stereo not drawn) [Example 220, 4-(6-(3-ethoxy-4-methoxyphenyl)-4-(trifluoromethyl)pyridin-2-yl)-1,2-oxaborolan-2-ol] | 2.37 | 3.29 | 2130 | 540 | – | – | –
29 | CCCOc1cc(-c2cccc(C3COB(O)C3)c2)ccc1OC (single isomer, unassigned) [Example 90, 4-(4′-methoxy-3′-propoxy-[1,1′-biphenyl]-3-yl)-1,2-oxaborolan-2-ol] | – | 4.33 | – | – | 13.7 | 2790 | 290
30 | COc1cc(C2COB(O)C2)nc(-c2ccc(OC)c(OC3CCCC3)c2)n1 (stereo not drawn) [Example 132, 4-(2-(3-(cyclopentyloxy)-4-methoxyphenyl)-6-methoxypyrimidin-4-yl)-1,2-oxaborolan-2-ol] | 2.42 | 2.63 | 604 | 12.9 | – | – | –
